According to US20220257592A1, “METHODS OF TREATING CANCER” (HOFFMANN-LA ROCHE INC., priority 2019, published 2022):

Test: Circulating exposure at steady-state in patients
Type: in vivo, human

circulating M5 exposure as share of corresponding entrectinib exposure: 40%
SMILES: O=C(Nc1n[nH]c2ccc(Cc3cc(F)cc(F)c3)cc12)c1ccc(N2CCNCC2)cc1NC1CCOCC1 [M5]
